Measurements: patent US20190367516A1 (Bayer Pharma Aktiengesellschaft, priority 2015, published 2019)
pEC50: −log10 of the molar value. Where two headings read alike, the source gives them in different places.

How the values were obtained:
[1] = system: anaesthetized rats; assay: Effects on the heart rate in anaesthetized rats (B-9); type: in vivo, rat; conditions: i.v. infusion via jugular vein over 5 min, dose not given, in some cases means of several determinations
Procedure: B-9. Effects of the Test Substances on the Heart Rate in Anaesthetized Rats
Male rats of the strain (WI) WU Br from the breeder Charles River are anaesthetized initially with a 4-5% isoflurane inhalation for approx. 3 min. Subsequently, anaesthesia is maintained using a 1.5% isoflurane inhalation. For this purpose, the anaesthetized animals are fixed on a heated operating plate. By means of visual inspection and between toe reflex, the depth of anaesthesia is checked.
For the application of the test substance, an i.v. route into the jugular vein is used. A caudal to cranial skin incision is then made longitudinally and both the cervical musculature and the salivary glands are severed. The right common carotid artery is exposed and blood supply is arrested both proximally and distally. Using microinstrumentation, a TIP catheter (1.2 F) is introduced into the vessel in order to measure the arterial pressure and the heart rate.
Initially, both parameters are monitored for 10 min in the basal state without substance addition. The substances to be investigated are dissolved in suitable solvent mixtures and subsequently administered at various dosages to a group of animals in each case via the jugular vein by an infusion pump over 5 min. A solvent-treated group is used as control under the same experimental conditions. The arterial blood pressure and heart rate with substance addition is determined for 20 min. The data are registered with the PowerLab system (AD instruments) and evaluated using the LabChart program (AD instruments).
The values determined in this manner for the percentage decrease in heart rate for individual working examples are given in Table 4 below (in some cases as means of a plurality of independent individual determinations): […]

[2] = biological target: T1, human M2 receptor (Homo sapiens, UniProt P08172)
T1 sequence (P08172 1-466): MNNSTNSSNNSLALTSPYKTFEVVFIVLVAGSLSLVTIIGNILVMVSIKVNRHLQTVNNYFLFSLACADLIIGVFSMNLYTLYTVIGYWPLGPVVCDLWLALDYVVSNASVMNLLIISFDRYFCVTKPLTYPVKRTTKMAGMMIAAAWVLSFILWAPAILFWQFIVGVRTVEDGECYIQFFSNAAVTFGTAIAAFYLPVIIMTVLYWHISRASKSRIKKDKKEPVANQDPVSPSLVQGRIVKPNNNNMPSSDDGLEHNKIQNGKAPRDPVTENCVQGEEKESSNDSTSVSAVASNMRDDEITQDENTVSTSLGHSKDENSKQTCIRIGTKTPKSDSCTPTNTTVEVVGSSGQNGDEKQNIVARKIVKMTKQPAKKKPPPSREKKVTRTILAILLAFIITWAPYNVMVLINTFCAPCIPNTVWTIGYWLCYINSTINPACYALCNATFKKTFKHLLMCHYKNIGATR

[3] = biological target: T1, human M2 receptor; type: cell-based; conditions: α >1 = positive cooperativity
[4] = biological target: T2, Human Recombinant M2 Muscarinic Acetylcholine Receptor (Homo sapiens, UniProt P08172); assay: Selectivity test, Ca2+ release (Eurofins GPCRProfiler): allosteric modulator assay, M2 (B-3.2); type: cell-based; conditions: for Selectivity (Shift EC50 M2/Shift EC50 M4): Table 2, quotient of allosteric shifts M2/M4; for Selectivity (Shift EC50 M2/Shift EC50 M1): Table 3, quotient of allosteric shifts M2/M1
T2 sequence (P08172 1-466): T1 sequence (P08172 1-466)
Procedure: B-3. Selectivity Test with Respect to Human Muscarinic Acetylcholine Receptors
Any potentially agonistic effect, or else positive allosteric effect, of the test substances on other human muscarinic acetylcholine receptors can be determined in a functional Ca^2+ release test (Eurofins; GPCRProfiler® Services in agonistic and allosteric mode for Mx Receptors; cat#: HTS600GPCR).
The substance test is conducted with a FLIPR^TETRA instrument (Molecular Devices).
After the agonism assay has ended, the assay plate is incubated at 25° C. for 7 min. After the incubation period, the positive allosteric modulator assay is initialized.
B-3.2. Allosteric Modulator Assay
In order to examine any positive or negative allosteric effect of the test substances on other human muscarinic acetylcholine receptors and the M2 receptor itself, every substance concentration is combined with an acetylcholine 8-point dose-response curve. Addition of agonist solution is again followed in turn by the measurement of cell fluorescence for a period of 180 sec. The shift in the acetylcholine dose-response curve (maximum shift in the EC50 of acetylcholine) is analysed and quantified by means of GraphPad PRISM (Sigmoidal dose-response (variable slope)−EC50). Finally, quotients of the allosteric shift for the M2 receptor and M4 receptor are formed, which function in turn as a measure of the respective selectivity.

[5] = Receptor activity EC50, M2-GIRK1/4 activation test, acetylcholine at EC20, allosteric potency, in some cases mean values from two or more determinations
[6] = shift in the acetylcholine dose-response curve (Allosteric EC50 shift, GraphPad PRISM)
[7] = test substance concentration 1 μM
[8] = test substance concentration 10 μM
[9] = Receptor activity EC50, allosteric potency at EC20 acetylcholine, M2-GIRK1/4 reporter cells, in some cases mean of two or more determinations
[10] = shift of acetylcholine dose-response curve (Allosteric EC50 shift)

Emax ([2]; read-out: Efficiency, boosting of the acetylcholine effect at EC20 acetylcholine concentration, M2-GIRK1/4 reporter cells) [%]	Compound	Reduction in heart rate (%) [1] [%]	pEC50 [2, 5]	Emax ([2]; read-out: Efficiency) [%]	Cooperativity (alpha factor) [3, 6]	Selectivity (Shift EC50 M2/Shift EC50 M4) [4, 7]	Selectivity (Shift EC50 M2/Shift EC50 M4) [4, 8]	Selectivity (Shift EC50 M2/Shift EC50 M1) [4, 8]	pEC50 [2, 9]	Cooperativity (alpha factor) [3, 10]
–	CC[C@@H](NC(=O)c1cn(-c2ccc(F)cc2F)c2nc(N3C[C@@H](O)CC3=O)ccc2c1=O)C(F)(F)F [Example 175]	6	7.16	97.3	33	29	83	287	–	–
–	O=C(N[C@@H](C1CC1)C(F)(F)F)c1cn(-c2c(F)cc(F)cc2F)c2nc(N3C[C@@H](O)[C@H](O)C3)ccc2c1=O [Example 590, N-[(1S)-1-Cyclopropyl-2,2,2-trifluoroethyl]-7-[(3R,4R)-3,4-dihydroxypyrrolidin-1-yl]-4-oxo-1-(2,4,6-trifluorophenyl)-1,4-dihydro-1,8-naphthyridine-3-carboxamide]	13	–	100	–	7	33	30	7.82	43
–	O=C(N[C@@H](C1CC1)C(F)(F)F)c1cn(-c2c(F)cc(F)cc2F)c2nc(N3CCNC3=O)ccc2c1=O [Example 323, N-[(1 S)-1-Cyclopropyl-2,2,2-trifluoroethyl]-4-oxo-7-(2-oxoimidazolidin-1-yl)-1-(2,4,6-trifluorophenyl)-1,4-dihydro-1,8-naphthyridine-3-carboxamide]	13	7.85	–	16	52	44	31	–	–
100	CC(C)(CC(F)(F)F)NC(=O)c1cn(-c2c(F)cc(F)cc2F)c2nc(N3C[C@@H](O)CC3=O)ccc2c1=O [Example 511, 7-[(4S)-4-Hydroxy-2-oxopyrrolidin-1-yl]-4-oxo-N-(4,4,4-trifluoro-2-methylbutan-2-yl)-1-(2,4,6-trifluorophenyl)-1,4-dihydro-1,8-naphthyridine-3-carboxamide]	10	–	–	–	–	–	–	8.05	30
